The values below are quoted from earlier work in patent US20090252807A1, “Nanoparticulate and Controlled Release Compositions Comprising Prostaglandin Derivatives” (ELAN PHARMA INTERNATIONAL LIMITED, priority 2005, published 2009).

Where two headings read alike, the source gives them in different places.

One data set concerns platelet adhesiveness. The following applies: in vitro.
The next data set relates to coronary blood flow. The settings on record: intra-coronary injection 100 ng/kg or intravenous injection 3 μg/kg, anesthetized dogs.
For another data set, the system named is blood pressure. The settings on record: 100 and 300 μg/kg orally in rats.

“(E)-7-{(1R,2R,3R)-3-hydroxy-2-[(3S,5S)-E-3hydroxy-5-methyl-1-nonenyl]-5-oxocyclopentyl}-2-heptonoic acid α-cyclodextrin inclusion compound [Limaprost]”: the solubility in diethylether entry is reported as “practically insoluble”, the solubility in ethanol entry was “very slightly soluble”, the “solubility in ethyl acetate” value is “practically insoluble” and the solubility in water entry is reported as “freely soluble”. The solubility in water entry (listed as limaprost) is “practically insoluble”. For the same substance, in the data set with platelet adhesiveness, the “potency relative to PGE1 as an inhibitor of platelet adhesiveness” value was 10-1,000 times. The “increase of coronary blood flow” value in the data set on coronary blood flow is listed as 60-80%. Further, the hypotensive effects result with blood pressure is “Significant hypotensive effects”.
